Results reported in patent US7713527B2, “Specific avian egg antibodies for disease prevention and improvement of growth performance” (priority 2006, dated 2010).
Read-outs that look alike come from different tables or passages of the source.

Type: in vivo
Conditions: Mecadox 1.0% in diet, no SDEP
Method: Thirty-six 18 day old piglets (6.3±0.2 kg) were allocated to six treatment groups, blocked by weight and given ad libitum access to feed and water (n=6/group)
Each group was administered varying doses of SDEP containing antibodies to ETEC K88 and/or antibiotics for 28 days (Table 1).
Animals were weighed at the end of phase 1 (14 d) and phase 2 (28 d), and average daily gains were calculated.
Thirty six crossbred (GAP Genetics, Winnipeg, MB, Canada) 18-d old pigs with an initial weight of 6.3±0.2 kg were allotted into six treatment groups: (1) control; (2) 0.1% SDEP; (3) 0.1% SDEP+antibiotics; (4) control+antibiotics; (5) 0.4% SDEP; (6) 0.4% SDEP+antibiotics.
Pigs were housed in stainless steel pens equipped with nipple waterers, stainless steel feeders, and plastic-coated expanded metal floors. The pens were located in an environmentally regulated building maintained at 25±2° C. with a 12-h light/dark cycle. Body weight and feed consumption were recorded after every phase and ad libitum access to feed and water was provided during the entire period of the study.
There were three pens per treatment and two pigs per pen. The pigs were fed a standard pig starter diet in phases 1 (Table 3) and 2 (Table 4). The diets were with or without spray-dried egg powder (SDEP) containing E. Coli K-88 antibodies and with or without antibiotics. The diets were fed in two phases. Both phases were fed for 14 days each. Pigs were allotted to treatments based on weaned weights and dam. Feed and water was available always. Pigs and feeders were weighed at the end of each phase to determine weight gains and feed disappearance.

Q: Which “Avg. daily gain / ADG” value (phase 1 (days 0-14)) does the source give for `COC(=O)N/N=C/c1c[n+]([O-])c2ccccc2[n+]1[O-]` [Mecadox] here?
A: 240 g

Q: And the “Avg. daily intake / ADFI” value (phase 1 (days 0-14))?
A: 328 g

Q: What about the Mean feed/gain (phase 1 (days 0-14)) of the same compound?
A: 1.63

Q: And the “Mean final weight / End Weight” value (phase 1 (days 0-14))?
A: 9.6 kg

Q: What about the “G:F” value (phase 1) of the same compound?
A: 0.72

Q: What about the “Avg. daily gain / ADG” value (phase 2 (days 14-28)) of the same compound?
A: 421 g

Q: And the “Avg. daily intake / ADFI” value (phase 2 (days 14-28))?
A: 532 g

Q: And the Mean feed/gain (phase 2 (days 14-28))?
A: 1.35

Q: What about the “Mean final weight / End Weight” value (phase 2 (days 14-28)) of the same compound?
A: 15.4 kg

Q: What about the “G:F” value (phase 2) of the same compound?
A: 0.74
